Values joined by “and” are separate entries in the source; they are usually repeats but may differ in a detail not shown here. Equal values may be shown once.
Legend:
Type in all cases: ADME, organism-based
Homo sapiens = assay: (§1) Pharmacokinetic parameters for Lidocaine, and Prilocaine after topical administration of EMLA cream intact skin on the lateral thighs, vaginal fornices and penile skin of subjects; set-up: dose 1.5 g, route topical; conditions: in vivo, topical_or_ocular; for C / Tmax: route topical
[1] = Evaluation of pharmacokinetic parameters for Lidocaine, and Prilocaine following intravenous (IV) administration of Lidocaine or application of a cream.; conditions: human, dosed compound id 50, dosed compound name PRILOCAINE, tissue Plasma
[2] = as §1; set-up: dose 1.5 g, route topical; conditions: human, in vivo, topical or ocular, 1.5 g; dosed compound id 50, dosed compound name PRILOCAINE, regimen Single dose, study dosing duration 3 hours, tissue Plasma
[3] = dose 0.5 to 3.3 g, dosed compound id 50, dosed compound name PRILOCAINE, gender female, regimen Single dose, study dosing duration 10 to 60 minutes, tissue Plasma

| Cmax (Homo sapiens) | clearance ([1]; in vivo, route iv) | half-life ([1]; in vivo, route iv) | Vd ([1]; in vivo, route iv, read-out: Vss) | fraction unbound ([1]; topical or ocular, route topical, read-out: Protein binding (converted)) | C (Homo sapiens; [3]) | Tmax (Homo sapiens; [3]) | C (Homo sapiens; dose 0.5 to 3.3 g, dosed compound id 50, dosed compound name PRILOCAINE, gender male, regimen Single dose, study dosing duration 15 minutes, tissue Plasma) | Tmax (Homo sapiens; dose 1.5 g, dosed compound id 50, dosed compound name PRILOCAINE, regimen Single dose, study dosing duration 3 hours, tissue Plasma) | Tmax (Homo sapiens; dose 1.5 g, dosed compound id 50, dosed compound name PRILOCAINE, regimen Single dose, study dosing duration 24 hours, tissue Plasma) | Cmax (Homo sapiens; dosed compound id 50, dosed compound name PRILOCAINE, regimen Single dose, study dosing duration 24 hours, tissue Plasma) | Cmax [2] | Compound |
| --- | --- | --- | --- | --- | --- | --- | --- | --- | --- | --- | --- | --- |
| 120 ng/mL and 280 ng/mL |  |  |  |  |  |  |  |  |  |  |  | CCN(CC)CC(=O)Nc1c(C)cccc1C [LIDOCAINE] |
|  | 38 mL/min/kg | 1.17 h | 2.6 L/kg | 0.45 | 40 to 346 ng/mL | 0.35 to 1.58 h | 2.5 to 7 ng/mL | 4 h | 10 h | 140 ng/mL | 70 ng/mL | CCCNC(C)C(=O)Nc1ccccc1C (configuration not stated) [PRILOCAINE] |

— ChEMBL document CHEMBL3832034
